The values below come from US7902204B2 (priority 2003, dated 2011).

pEC50: −log10 of the molar value.

In the test the test system is HIV-1 single-round infectious reporter virus. Nature of the test: Single-round infectious HIV-1 luciferase reporter virus infection of HeLa CD4 CCR5 cells. Format: cell-based. The settings on record: Human immunodeficiency virus 1, HeLa-CD4/CCR5, 72 h, read-out: EC50 Group from Table 1. The procedure: • Virus production—Human embryonic Kidney cell line, 293, propagated in Dulbecco's Modified Eagle Medium (Life Technologies, Gaithersburg, Md.) containing 10% fetal Bovine serum (FBS, Sigma, St. Louis, Mo.). • Virus infection—Human epithelial cell line, HeLa, expressing the HIV-1 receptors CD4 and CCR5 was propagated in Dulbecco's Modified Eagle Medium (Life Technologies, Gaithersburg, Md.) containing 10% fetal Bovine serum (FBS, Sigma, St. Louis, Mo.) and supplemented with 0.2 mg/mL Geneticin (Life Technologies, Gaithersburg, Md.) and 0.4 mg/mL Zeocin (Invitrogen, Carlsbad, Calif.). Virus-Single-round infectious reporter virus was produced by co-transfecting human embryonic Kidney 293 cells with an HIV-1 envelope DNA expression vector and a proviral cDNA containing an envelope deletion mutation and the luciferase reporter gene inserted in place of HIV-1 nef sequences (Chen et al, Ref 41). Transfections were performed using lipofectAMINE PLUS reagent as described by the manufacturer (Life Technologies, Gaithersburg, Md.). Experiment • 1. Compound was added to HeLa CD4 CCR5 cells plated in 96 well plates at a cell density of 1×10^4 cells per well in 100 μl Dulbecco's Modified Eagle Medium containing 10% fetal Bovine serum at a concentration of <20 μM. • 2. 100 μl of single-round infectious reporter virus in Dulbecco's Modified Eagle Medium was then added to the plated cells and compound at an approximate multiplicity of infection (MOI) of 0.01, resulting in a final volume of 200 μl per well and a final compound concentration of <10 μM. • 3. Samples were harvested 72 h after infection. • 4. Viral infection was monitored by measuring luciferase expression from viral DNA in the infected cells using a luciferase reporter gene assay kit (Roche Molecular Biochemicals, Indianapolis, Ind.). Infected cell supernatants were removed and 50 μl of Dulbecco's Modified Eagle Medium (without phenol red) and 50 μl of luciferase assay reagent reconstituted as described by the manufacturer (Roche Molecular Biochemicals, Indianapolis, Ind.) was added per well. Luciferase activity was then quantified by measuring luminescence using a Wallac microbeta scintillation counter. • 5. The percent inhibition for each compound was calculated by quantifying the level of luciferase expression in cells infected in the presence of each compound as a percentage of that observed for cells infected in the absence of compound and subtracting such a determined value from 100. • 6. An EC50 provides a method for comparing the antiviral potency of the compounds of this invention. The effective concentration for fifty percent inhibition (EC50) was calculated with the Microsoft Excel Xlfit curve fitting software. For each compound, curves were generated from percent inhibition calculated at 10 different concentrations by using a four paramenter logistic model (model 205). Table 1 is the key for the data in Tables 2-4.
(In a reporter assay the amount or activity of a reporter protein is the signal.)
A word on the pEC50: it is −log10 of the EC50, conventionally taken in molar units. Consider `O=C(C(=O)N1CCN(c2ncnc3ccccc23)CC1)c1c[nH]c2c(-n3cccn3)ncnc12` [Example 40, 1-(4-(1H-Pyrazol-1-yl)-5H-pyrrolo[3,2-d]pyrimidin-7-yl)-2-(4-(quinazolin-4-yl)piperazin-1-yl)ethane-1,2-dione], for which the pEC50 was more than 6.00.

`O=C(C(=O)N1CCN(C(=O)c2ccccc2)CC1)c1c[nH]c2c(N3CCN(C(=O)c4cc[nH]n4)CC3)ncnc12` [Example 41, 1-(4-(4-(1H-Pyrazole-3-carbonyl)piperazin-1-yl)-5H -pyrrolo[3,2-d]pyrimidin-7-yl)-2-(4-benzoylpiperazin-1-yl)ethane-1,2-dione]: the pEC50 was more than 6.00.

For the compound `O=C(C(=O)N1CCN(C(=O)c2ccccc2)CC1)c1c[nH]c2c(-c3ccnnc3)ncnc12` [Example 29, 1-(4-Benzoylpiperazin-1-yl)-2-(4-(pyridazin-4-yl)-5H-pyrrolo[3,2-d]pyrimidin-7-yl)ethane-1,2-dione], the pEC50 is more than 6.00.

With `O=C(C(=O)N1CCN(C(=O)c2ccccc2)CC1)c1c[nH]c2c(-n3ccc(-c4ccc(F)cc4)n3)ncnc12` [Example 16, 1-(4-Benzoylpiperazin-1-yl)-2-(4-(3-(4-fluorophenyl)-1H-pyrazol-1-yl)-5H-pyrrolo[3,2-d]pyrimidin-7-yl)ethane-1,2-dione], the pEC50 is more than 6.00.

On to `CC(=O)c1ncnc2c(C(=O)C(=O)N3CCN(C(=O)c4ccccc4)CC3)c[nH]c12` [Example 11, 1-(4-Acetyl-5H-pyrrolo[3,2-d]pyrimidin-7-yl)-2-(4-benzoylpiperazin-1-yl)ethane-1,2-dione], for which the negative logarithm of the EC50 (pEC50) is more than 6.00.

Consider `O=C(C(=O)N1CCN(c2nccc3ccccc23)CC1)c1c[nH]c2c(-n3cccn3)ncnc12` [Example 32, 1-(4-(1H-Pyrazol-1-yl)-5H-pyrrolo[3,2-d]pyrimidin-7-yl)-2-(4-(isoquinolin-1-yl)piperazin-1-yl)ethane-1,2-dione], for which the pEC50 was more than 6.00.

As for `O=C(C(=O)N1CCN(C(=O)c2ccccc2)CC1)c1c[nH]c2c(-c3cncnc3)ncnc12` [Example 28, 1-(4-Benzoylpiperazin-1-yl)-2-(4-(pyrimidin-5-yl)-5H-pyrrolo[3,2-d]pyrimidin-7-yl)ethane-1,2-dione], the pEC50 is more than 6.00.

`O=C(C(=O)N1CCN(C(=O)c2ccccc2)CC1)c1c[nH]c2c(-n3ccc(-c4ccccn4)n3)ncnc12` [Example 39, 1-(4-Benzoylpiperazin-1-yl)-2-(4-(3-(pyridin-2-yl) -1H-pyrazol-1-yl)-5H-pyrrolo[3,2-d]pyrimidin-7-yl)ethane-1,2-dione]: the pEC50 is more than 6.00.

As for `O=C(C(=O)N1CCN(C(=O)c2ccccc2)CC1)c1c[nH]c2c(-c3ccccn3)ncnc12` [Example 24, 1-(4-Benzoylpiperazin-1-yl)-2-(4-(pyridin-2-yl)-5H -pyrrolo[3,2-d]pyrimidin-7-yl)ethane-1,2-dione], the pEC50 is more than 6.00.

On to `O=C(C(=O)N1CCN(c2nccc3ccccc23)CC1)c1c[nH]c2c(Cl)ncnc12` [Example 30, 1-(4-Chloro-5H-pyrrolo[3,2-d]pyrimidin-7-yl)-2-(4-(isoquinolin-1-yl)piperazin-1-yl)ethane-1,2-dione], for which the pEC50 is more than 6.00.

Turning to `O=C(C(=O)N1CCN(C(=O)c2ccccc2)CC1)c1c[nH]c2c(-n3ccc(-c4cccc(C(F)(F)F)c4)n3)ncnc12` [Example 19, 1-(4-Benzoylpiperazin-1-yl)-2-(4-(3-(3-(trifluoromethyl)phenyl)-1H-pyrazol-1-yl)-5H-pyrrolo[3,2-d]pyrimidin-7-yl)ethane-1,2-dione], the pEC50 is more than 6.00.

For the compound `O=C(C(=O)N1CCC(=C(c2ccccc2)c2nnco2)CC1)c1c[nH]c2c(-n3cncn3)ncnc12` [Example 36, 1-(4-((1,3,4-Oxadiazol-2-yl)(phenyl)methylene)piperidin-1-yl) -2-(4-(1H-1,2,4-triazol-1-yl)-5H-pyrrolo[3,2-d]pyrimidin-7-yl)ethane-1,2-dione], the pEC50 was more than 6.00.
